From PMC10539501 (Nature Communications, 2023)
Starred links: 1 amine or outer side, 2 acyl side, 3 side chain; linkers in the order of their positions; H or OH if unused. Non-standard residues stand in square brackets, D forms with d. Residues, ends and D or L forms follow the SMILES beside them. X4 = CC(C)C[C@H](N[*:1])C(=S)N1CCC[C@@H]1C(=O)[*:2]

Legend:
in vitro [1] = details: both, human, plasma
[2] = PAMPA passive permeability; assay type: in vitro ADME;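 further: passive permeability across an artificial membrane in 96-well pre-coated PAMPA plates, which lack transporters and efflux systems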
in vitro [3] = details: pig, simulated intestinal fluid
in vitro [4] = details: both, human, plasma; remark: listed apart in the source
[5] = assay type: physicochemical
pepsin = pepsin (Sus scrofa, UniProt P00791); assay: in vitro; details: simulated gastric fluid, pH 1.2
pepsin, sequence (P00791 60-385): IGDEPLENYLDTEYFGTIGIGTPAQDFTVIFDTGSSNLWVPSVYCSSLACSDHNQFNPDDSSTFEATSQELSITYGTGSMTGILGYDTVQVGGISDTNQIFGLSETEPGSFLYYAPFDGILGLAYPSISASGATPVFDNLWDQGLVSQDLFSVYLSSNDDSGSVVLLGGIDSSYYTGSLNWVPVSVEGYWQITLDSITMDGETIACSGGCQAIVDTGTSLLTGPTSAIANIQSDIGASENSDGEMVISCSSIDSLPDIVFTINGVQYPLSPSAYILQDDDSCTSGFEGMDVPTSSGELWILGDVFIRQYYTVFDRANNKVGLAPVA

[6] = assay type: physicochemical; remark: listed apart in the source
Caco-2 cells = assay: in vitro; assay type: in vitro ADME, human; details: Caco-2
in vitro [7] = assay type: in vitro ADME, human
in vitro [8] = details: human, microsomes
physchem = details: pH 7.4
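Wherever Papp A-B + Elacridar avg is given: Caco-2 monolayers used 21 days after seeding in HBSS-HEPES buffer with 1% DMSO, donor and acceptor levels quantified by LC-MS/MS, TEER checked before and after.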
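Wherever Papp A-B + Elacridar set 1 is given: Caco-2 monolayers used 21 days after seeding in HBSS-HEPES buffer with 1% DMSO, donor and acceptor levels quantified by LC-MS/MS, TEER checked before and after.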
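Wherever Papp A-B + Elacridar set 2 is given: Caco-2 monolayers used 21 days after seeding in HBSS-HEPES buffer with 1% DMSO, donor and acceptor levels quantified by LC-MS/MS, TEER checked before and after.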
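Wherever Papp A-B avg is given: Caco-2 monolayers used 21 days after seeding in HBSS-HEPES buffer with 1% DMSO, donor and acceptor levels quantified by LC-MS/MS, TEER checked before and after.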

## CC(C)C[C@@H]1NC(=O)[C@H](Cc2ccc(O)cc2)NC(=O)[C@H]2CCCN2C(=S)[C@H](CC(C)C)NC(=O)[C@H](CC(C)C)NC(=O)[C@@H](CC(C)C)NC1=O [10c] (cyclo(L[dL]L[X4]Y))
In vitro [1]
  fraction unbound: 0.24
[2]
  Pe Avg: 3.1 ×10⁻⁶ cm/s
  Pe set1: 2.92 ×10⁻⁶ cm/s
  Pe set2: 3.69 ×10⁻⁶ cm/s
  Pe set3: 2.79 ×10⁻⁶ cm/s
[2]; Pe Avg
  Papp: 3.1 ×10⁻⁶ cm/s
In vitro [3]
  half-life: 34 min
  remaining at 10 min: 70%
  remaining at 0.5 h: 50.7%
  remaining at 1 h: 46.6%
  remaining at 2 h: 38.4%
  remaining at 4 h: 29.3%
  remaining at 8 h: 26.2%
  remaining at 12 h: 20.6%
  remaining at 24 h: 12.8%
In vitro [4]
  half-life: 1260 min
  remaining at 1 h: 87%
  remaining at 3 h: 83%
  remaining at 5 h: 78%
  remaining at 7 h: 75%
  remaining at 9 h: 64%
  remaining at 12 h: 60%
  remaining at 24 h: 44%
  remaining at 36 h: 34%
  remaining at 48 h: 26%
  remaining at 60 h: 10%
  remaining at 72 h: 12%
[5]
  % solubility: 69%
Human liver microsomes
  Half lives: 13.8
pepsin
  half-life: 20 min
  remaining at 5 min: 76%
  remaining at 10 min: 68%
  remaining at 20 min: 50%
  remaining at 0.5 h: 41%
  remaining at 1 h: 31%
  remaining at 2 h: 26%
  remaining at 4 h: 19%
  remaining at 8 h: 12%
  remaining at 12 h: 5%
  remaining at 24 h: 0%
[6]
  logD heptane ethylene glycol: 0.72
Caco-2 cells
  Papp A-B + Elacridar avg: 0 ×10⁻⁶ cm/s
  Papp A-B + Elacridar set 1: 0 ×10⁻⁶ cm/s
  Papp A-B + Elacridar set 2: 0 ×10⁻⁶ cm/s
  Papp A-B avg: 0 cm/s
  Papp A-B avg (second block): 0.00 cm/s
  Papp A-B set 1: 0 cm/s
  Papp A-B set 1 (second block): 0.00 cm/s
  Papp A-B set 2: 0 cm/s
  Papp A-B set 2 (second block): 0.00 cm/s
  Papp AB+Elacridar (PAMPA Caco2 correlation): 0 ×10⁻⁶ cm/s
  Papp B-A avg (second block): 5.3 ×10⁻⁶ cm/s
  Papp B-A set 1 (second block): 4.5 ×10⁻⁶ cm/s
  Papp B-A set 2 (second block): 6.1 ×10⁻⁶ cm/s
In vitro [7]; Caco-2, Papp B-A + Elacridar avg
  Papp B→A: 0.6 ×10⁻⁶ cm/s
In vitro [7]; Caco-2, Papp B-A avg
  Papp B→A: 5.26 ×10⁻⁶ cm/s
In vitro [8]
  microsomal CLint: 106 µL/min/mg
  remaining at 5 min: 76%
  remaining at 10 min: 56%
  remaining at 20 min: 45%
  remaining at 0.5 h: 35%
  remaining at 0.75 h: 16%
  remaining at 1 h: 17%
physchem
  logD: 1.27
